The target of this test is T1, A2-S481T/C482T (mutant ASCT2) (Homo sapiens, UniProt Q15758, C467T/S466T).
T1 construct: expressed in transfected cells; host or cells: Xenopus laevis oocytes (cRNA injection)
T1 sequence (Q15758 1-541 S466T/C467T): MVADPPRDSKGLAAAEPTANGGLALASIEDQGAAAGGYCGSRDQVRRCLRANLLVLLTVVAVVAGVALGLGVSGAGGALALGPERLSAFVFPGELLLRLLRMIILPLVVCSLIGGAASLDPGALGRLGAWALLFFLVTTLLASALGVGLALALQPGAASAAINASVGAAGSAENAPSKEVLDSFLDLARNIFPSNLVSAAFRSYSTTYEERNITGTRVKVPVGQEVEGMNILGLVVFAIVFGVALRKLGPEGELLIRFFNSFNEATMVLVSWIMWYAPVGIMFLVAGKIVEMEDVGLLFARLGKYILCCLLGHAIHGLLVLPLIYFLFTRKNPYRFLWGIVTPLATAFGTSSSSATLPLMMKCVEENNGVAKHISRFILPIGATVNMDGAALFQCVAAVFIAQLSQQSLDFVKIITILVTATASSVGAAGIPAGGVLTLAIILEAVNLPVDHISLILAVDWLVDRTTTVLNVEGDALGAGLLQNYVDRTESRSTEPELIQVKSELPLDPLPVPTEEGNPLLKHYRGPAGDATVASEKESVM
Briefly: Radiolabelled uptake in oocytes expressing A2-S481T/C482T. It is filed as cell-based. To be noted: 10 µM L-[3H]substrate, 10 min, room temperature.

Here are results for one molecule from article PMC5750217 (Nature Communications, 2018).

For the molecule `N[C@@H](CO)C(=O)O` [L-serine], the “Radiolabelled substrate uptake into oocytes (in words)” value was “displays uptake”.
